Measured values published in paper PMC5218480 (PLoS ONE, 2017).

System: MV-4-11 cells
Test: Gene expression microarray analysis (Affymetrix PrimeView) and GSEA
Type: cell-based, human
Set-up: RFU PODN (11730768_x_at) / Fold change /veh PODN (11730768_x_at) / RFU LINC00158 (11744669_a_at) / Fold change /veh LINC00158 (11744669_a_at) / RFU DUSP10 (11751237_a_at) / Fold change /veh DUSP10 (11751237_a_at) / RFU ID3 (11757404_x_at) / Fold change /veh ID3 (11757404_x_at) / RFU PLEKHG5 (11737974_s_at) / Fold change /veh PLEKHG5 (11737974_s_at) / RFU LRRC4B (11730491_at) / Fold change /veh LRRC4B (11730491_at) / RFU GIMAP4 (11747438_a_at) / Fold change /veh GIMAP4 (11747438_a_at) / RFU KRT8 (11758183_x_at) / Fold change /veh KRT8 (11758183_x_at) / RFU CNN1 (11734310_a_at) / Fold change /veh CNN1 (11734310_a_at) / RFU VPS37D (11726825_at) / Fold change /veh VPS37D (11726825_at) / RFU C10orf10 (11716522_x_at) / Fold change /veh C10orf10 (11716522_x_at) / RFU KIR2DL2 /// KIR2DL4 /// KIR2DL5A /// KIR2DL5B /// KIR2DS1 /// KIR2DS2 /// KIR2DS3 /// KIR2DS4 /// KIR3DL3 /// KIR3DL3 /// KIR3DS1 (11738374_at) / Fold change /veh KIR2DL2 /// KIR2DL4 /// KIR2DL5A /// KIR2DL5B /// KIR2DS1 /// KIR2DS2 /// KIR2DS3 /// KIR2DS4 /// KIR3DL3 /// KIR3DL3 /// KIR3DS1 (11738374_at) / RFU C1QL1 (11718748_at) / Fold change /veh C1QL1 (11718748_at) / RFU TMPRSS4 (11747572_a_at) / Fold change /veh TMPRSS4 (11747572_a_at) / RFU HAMP (11756126_x_at) / Fold change /veh HAMP (11756126_x_at) / RFU RNFT2 (11725882_a_at) / Fold change /veh RNFT2 (11725882_a_at) / RFU NR4A2 (11747474_a_at) / Fold change /veh NR4A2 (11747474_a_at) / RFU ABCC12 (11746883_a_at) / Fold change /veh ABCC12 (11746883_a_at) / RFU TMEM136 (11760407_x_at) / Fold change /veh TMEM136 (11760407_x_at) / RFU CLDN22 /// WWC2 (11732394_at) / Fold change /veh CLDN22 /// WWC2 (11732394_at) / RFU HLA-DPB1 (11760878_x_at) / Fold change /veh HLA-DPB1 (11760878_x_at) / RFU SPINT1 (11716480_a_at) / Fold change /veh SPINT1 (11716480_a_at) / RFU GAP43 (11754022_s_at) / Fold change /veh GAP43 (11754022_s_at) / RFU A4GNT (11735810_at) / Fold change /veh A4GNT (11735810_at) / RFU PRB3 (11715151_x_at) / Fold change /veh PRB3 (11715151_x_at) / RFU TUBB4B (11761932_at) / Fold change /veh TUBB4B (11761932_at) / RFU CAPN14 (11732068_a_at) / Fold change /veh CAPN14 (11732068_a_at) / RFU TMCC2 (11721928_a_at) / Fold change /veh TMCC2 (11721928_a_at) / RFU IRGQ (11745062_a_at) / Fold change /veh IRGQ (11745062_a_at) / RFU FAM174B (11720279_a_at) / Fold change /veh FAM174B (11720279_a_at) / RFU TMPRSS4 (11748680_a_at) / Fold change /veh TMPRSS4 (11748680_a_at) / RFU FAM212B (11763350_a_at) / Fold change /veh FAM212B (11763350_a_at) / RFU PLEKHG5 (11743358_a_at) / Fold change /veh PLEKHG5 (11743358_a_at) / RFU ZSCAN30 (11745921_a_at) / Fold change /veh ZSCAN30 (11745921_a_at) / RFU CMKLR1 (11741424_a_at) / Fold change /veh CMKLR1 (11741424_a_at) / RFU LOC101060620 /// MAPK8IP1 (11723275_at) / Fold change /veh LOC101060620 /// MAPK8IP1 (11723275_at) / RFU SPTSSB (11747773_x_at) / Fold change /veh SPTSSB (11747773_x_at) / RFU PRSS12 (11739890_at) / Fold change /veh PRSS12 (11739890_at) / RFU BIN1 (11741810_x_at) / Fold change /veh BIN1 (11741810_x_at) / RFU WNT11 (11732464_a_at) / Fold change /veh WNT11 (11732464_a_at) / RFU C10orf10 (11716521_a_at) / Fold change /veh C10orf10 (11716521_a_at) / RFU C5orf56 (11738089_at) / Fold change /veh C5orf56 (11738089_at) / RFU CYB561 (11721691_x_at) / Fold change /veh CYB561 (11721691_x_at) / RFU ANKRD19P (11752326_a_at) / Fold change /veh ANKRD19P (11752326_a_at) / RFU OR2T12 /// OR2T33 /// OR2T8 (11738714_s_at) / Fold change /veh OR2T12 /// OR2T33 /// OR2T8 (11738714_s_at) / RFU VCAN (11748164_a_at) / Fold change /veh VCAN (11748164_a_at) / RFU JSRP1 (11732532_at) / Fold change /veh JSRP1 (11732532_at) / RFU KRTAP10-11 (11738290_x_at) / Fold change /veh KRTAP10-11 (11738290_x_at) / RFU MYO3A (11730013_a_at) / Fold change /veh MYO3A (11730013_a_at) / RFU EBF3 (11725865_a_at) / Fold change /veh EBF3 (11725865_a_at) / RFU CAMK2N1 (11719241_x_at) / Fold change /veh CAMK2N1 (11719241_x_at) / RFU C5orf56 (11738088_a_at) / Fold change /veh C5orf56 (11738088_a_at) / RFU OLFML3 (11715873_a_at) / Fold change /veh OLFML3 (11715873_a_at) / RFU LOC100653217 /// NTM (11731650_a_at) / Fold change /veh LOC100653217 /// NTM (11731650_a_at) / RFU MAPK11 (11762145_a_at) / Fold change /veh MAPK11 (11762145_a_at) / RFU FIZ1 (11724087_x_at) / Fold change /veh FIZ1 (11724087_x_at) / RFU OASL (11726364_x_at) / Fold change /veh OASL (11726364_x_at) / RFU SOX15 (11748057_x_at) / Fold change /veh SOX15 (11748057_x_at) / RFU CD79A (11719716_a_at) / Fold change /veh CD79A (11719716_a_at) / RFU HIST1H1D (11736915_at) / Fold change /veh HIST1H1D (11736915_at) / RFU CASKIN2 (11723855_a_at) / Fold change /veh CASKIN2 (11723855_a_at) / RFU LOC730098 (11760151_x_at) / Fold change /veh LOC730098 (11760151_x_at) / RFU OR4N2 (11742367_at) / Fold change /veh OR4N2 (11742367_at) / RFU PRRT2 (11749266_a_at) / Fold change /veh PRRT2 (11749266_a_at) / RFU SNX32 (11753110_a_at) / Fold change /veh SNX32 (11753110_a_at) / RFU CDHR5 (11726645_a_at) / Fold change /veh CDHR5 (11726645_a_at) / RFU RCAN1 (11760418_a_at) / Fold change /veh RCAN1 (11760418_a_at) / RFU FAM167A (11723789_a_at) / Fold change /veh FAM167A (11723789_a_at) / RFU FAM26E (11764081_at) / Fold change /veh FAM26E (11764081_at) / RFU ISYNA1 (11749810_s_at) / Fold change /veh ISYNA1 (11749810_s_at) / RFU ACY1 (11761880_at) / Fold change /veh ACY1 (11761880_at) / RFU 11764098_at / Fold change /veh 11764098_at / RFU SAMD14 (11745864_x_at) / Fold change /veh SAMD14 (11745864_x_at) / RFU NPB (11741838_a_at) / Fold change /veh NPB (11741838_a_at) / RFU TMPRSS6 (11731388_a_at) / Fold change /veh TMPRSS6 (11731388_a_at) / RFU KRTAP10-2 (11738614_at) / Fold change /veh KRTAP10-2 (11738614_at) / RFU ARHGAP8 /// PRR5-ARHGAP8 (11727945_x_at) / Fold change /veh ARHGAP8 /// PRR5-ARHGAP8 (11727945_x_at) / RFU KRTAP5-7 /// NADSYN1 (11734609_at) / Fold change /veh KRTAP5-7 /// NADSYN1 (11734609_at) / RFU RASL12 (11751679_a_at) / Fold change /veh RASL12 (11751679_a_at) / RFU CDKN2B (11736163_a_at) / Fold change /veh CDKN2B (11736163_a_at) / RFU PRF1 (11729649_at) / Fold change /veh PRF1 (11729649_at) / RFU, ZNF638 /// ZNF638-IT1 / Fold change vs veh, ZNF638 /// ZNF638-IT1 / RFU, PANK3 / Fold change vs veh, PANK3 / RFU, SH3YL1 / Fold change vs veh, SH3YL1 / RFU, ZEB2 / Fold change vs veh, ZEB2 / RFU, NRIP1 / Fold change vs veh, NRIP1 / RFU, PTTG1IP / Fold change vs veh, PTTG1IP / RFU, CAPN2 / Fold change vs veh, CAPN2 / RFU, MED14 / Fold change vs veh, MED14 / RFU, SNORA58 / Fold change vs veh, SNORA58 / RFU, C1orf63 / Fold change vs veh, C1orf63 / RFU, LRRFIP1 / Fold change vs veh, LRRFIP1 / RFU, NDUFAF7 / Fold change vs veh, NDUFAF7 / RFU, SLC12A2 / Fold change vs veh, SLC12A2 / RFU, IBTK / Fold change vs veh, IBTK / RFU, ESF1 / Fold change vs veh, ESF1 / Fold change vs veh, TMEM50B / RFU, TAOK1 / Fold change vs veh, TAOK1 / RFU, ACBD3 / Fold change vs veh, ACBD3 / RFU, TMA16 / Fold change vs veh, TMA16 / RFU, RWDD3 / Fold change vs veh, RWDD3 / RFU, BCAT1 / Fold change vs veh, BCAT1 / RFU, EDEM3 / Fold change vs veh, EDEM3 / RFU, TMEM33 / Fold change vs veh, TMEM33 / RFU, WDR75 / Fold change vs veh, WDR75 / RFU, AHCTF1 / Fold change vs veh, AHCTF1 / RFU, TFRC / Fold change vs veh, TFRC / RFU, ZDHHC17 / Fold change vs veh, ZDHHC17 / RFU, NOM1 / Fold change vs veh, NOM1 / RFU, ARL8B / Fold change vs veh, ARL8B / RFU, ZBTB11 / Fold change vs veh, ZBTB11 / RFU, TAMM41 / Fold change vs veh, TAMM41 / RFU, KIAA1704 /// LOC100996395 / Fold change vs veh, KIAA1704 /// LOC100996395 / RFU, ING1 / Fold change vs veh, ING1 / RFU, TRMT61B / Fold change vs veh, TRMT61B / RFU, FUBP3 / Fold change vs veh, FUBP3 / RFU, TP53 / Fold change vs veh, TP53 / RFU, TNKS2 / Fold change vs veh, TNKS2 / RFU, ZFP14 / Fold change vs veh, ZFP14 / RFU, ACTR2 / Fold change vs veh, ACTR2 / RFU, PPP3R1 / Fold change vs veh, PPP3R1 / RFU, PIK3R1 / Fold change vs veh, PIK3R1 / RFU, HNRNPA1 / Fold change vs veh, HNRNPA1 / RFU, RNF170 / Fold change vs veh, RNF170 / RFU, ZNF28 / Fold change vs veh, ZNF28 / RFU, RNGTT / Fold change vs veh, RNGTT / RFU, OGT / Fold change vs veh, OGT / RFU, BRD1 / Fold change vs veh, BRD1 / RFU, MARS / Fold change vs veh, MARS / RFU, ZNF655 / Fold change vs veh, ZNF655 / RFU, FAHD1 / Fold change vs veh, FAHD1 / RFU, BDP1 / Fold change vs veh, BDP1 / RFU, LRRCC1 / Fold change vs veh, LRRCC1 / RFU, ARID1A / Fold change vs veh, ARID1A / RFU, ZNF146 / Fold change vs veh, ZNF146 / RFU, ZNF330 / Fold change vs veh, ZNF330 / RFU, GPN3 / Fold change vs veh, GPN3 / RFU, C9orf123 / Fold change vs veh, C9orf123 / RFU, N4BP2L2 / Fold change vs veh, N4BP2L2 / RFU, ARFIP1 / Fold change vs veh, ARFIP1 / RFU, FAM179B / Fold change vs veh, FAM179B / RFU, BCL10 / Fold change vs veh, BCL10 / RFU, UHRF1BP1L / Fold change vs veh, UHRF1BP1L / RFU, BET1 / Fold change vs veh, BET1 / RFU, CNOT2 / Fold change vs veh, CNOT2 / RFU, ZNF268 / Fold change vs veh, ZNF268 / Fold change vs veh, ZNF507 / RFU, DGCR2 / Fold change vs veh, DGCR2 / RFU, WDSUB1 / Fold change vs veh, WDSUB1 / Fold change vs veh, HSP90B1 /// MIR3652 / RFU, ADSS / Fold change vs veh, ADSS / RFU, GK / Fold change vs veh, GK / RFU, ZNF148 / Fold change vs veh, ZNF148 / RFU, TAF9 / Fold change vs veh, TAF9 / RFU, SLC1A5 / Fold change vs veh, SLC1A5 / RFU, SLMO2 / Fold change vs veh, SLMO2 / RFU, ABCC4 / Fold change vs veh, ABCC4 / RFU, LOC101060439 /// RAP1B / Fold change vs veh, LOC101060439 /// RAP1B / RFU, RFX7 / Fold change vs veh, RFX7 / RFU, GTPBP10 / Fold change vs veh, GTPBP10 / RFU, CNEP1R1 / Fold change vs veh, CNEP1R1 / RFU, BIVM-ERCC5 /// ERCC5 / Fold change vs veh, BIVM-ERCC5 /// ERCC5 / RFU, ILF3 / Fold change vs veh, ILF3 / RFU 11762660_at / Fold change /veh 11762660_at / RFU VCAN (11757783_s_at) / Fold change /veh VCAN (11757783_s_at) / RFU DDX43 (11728927_at) / Fold change /veh DDX43 (11728927_at) / RFU KRT8 (11758188_x_at) / Fold change /veh KRT8 (11758188_x_at) / RFU NKD1 (11759106_at) / Fold change /veh NKD1 (11759106_at) / RFU SRD5A1 (11742802_a_at) / Fold change /veh SRD5A1 (11742802_a_at) / RFU TPSAB1 /// TPSB2 (11721975_s_at) / Fold change /veh TPSAB1 /// TPSB2 (11721975_s_at) / RFU GSTM3 (11746129_a_at) / Fold change /veh GSTM3 (11746129_a_at) / RFU IL23R (11737362_x_at) / Fold change /veh IL23R (11737362_x_at) / RFU TMEM51 (11727254_a_at) / Fold change /veh TMEM51 (11727254_a_at) / RFU PIWIL2 (11732686_x_at) / Fold change /veh PIWIL2 (11732686_x_at) / RFU ORM1 (11744905_x_at) / Fold change /veh ORM1 (11744905_x_at) / RFU CCDC152 (11743942_at) / Fold change /veh CCDC152 (11743942_at) / RFU ECM1 (11717891_a_at) / Fold change /veh ECM1 (11717891_a_at) / RFU IL23R (11748794_a_at) / Fold change /veh IL23R (11748794_a_at) / RFU TNFAIP8L3 (11732012_x_at) / Fold change /veh TNFAIP8L3 (11732012_x_at) / RFU MBOAT4 (11741988_at) / Fold change /veh MBOAT4 (11741988_at) / RFU 11764193_at / Fold change /veh 11764193_at / RFU TMEM53 (11763286_at) / Fold change /veh TMEM53 (11763286_at) / RFU MAGEB2 (11727129_at) / Fold change /veh MAGEB2 (11727129_at) / RFU TMEM200A (11744735_a_at) / Fold change /veh TMEM200A (11744735_a_at) / RFU CCDC152 (11751479_a_at) / Fold change /veh CCDC152 (11751479_a_at) / RFU FAM211A (11726209_a_at) / Fold change /veh FAM211A (11726209_a_at) / RFU RGS16 (11746705_a_at) / Fold change /veh RGS16 (11746705_a_at) / RFU VCAN (11755009_s_at) / Fold change /veh VCAN (11755009_s_at) / RFU RHOB (11743442_s_at) / Fold change /veh RHOB (11743442_s_at) / RFU RGS16 (11720943_a_at) / Fold change /veh RGS16 (11720943_a_at) / RFU RGS16 (11720944_at) / Fold change /veh RGS16 (11720944_at) / RFU, VPS4B / Fold change vs veh, VPS4B / RFU, CREB1 / Fold change vs veh, CREB1 / RFU, DNAJC13 / Fold change vs veh, DNAJC13 / RFU, GNAQ / Fold change vs veh, GNAQ / RFU, CDK5R1 / Fold change vs veh, CDK5R1 / RFU, ZRANB3 / Fold change vs veh, ZRANB3 / RFU, CUL4A / Fold change vs veh, CUL4A / RFU, CCNY / Fold change vs veh, CCNY / RFU, UFL1 / Fold change vs veh, UFL1 / RFU, COG3 / Fold change vs veh, COG3 / RFU, DIAPH2 / Fold change vs veh, DIAPH2 / RFU, SKA2 / Fold change vs veh, SKA2 / RFU, AFF3 / Fold change vs veh, AFF3 / RFU, LMF1 / Fold change vs veh, LMF1 / RFU, IPO11 / Fold change vs veh, IPO11 / RFU, DFFB / Fold change vs veh, DFFB / RFU, FOXP1 / Fold change vs veh, FOXP1 / RFU, CARD8 / Fold change vs veh, CARD8 / RFU, STRN3 / Fold change vs veh, STRN3 / RFU, ADK / Fold change vs veh, ADK / RFU, RASSF2 / Fold change vs veh, RASSF2 / RFU, WIPF1 / Fold change vs veh, WIPF1 / RFU, LARP1B / Fold change vs veh, LARP1B / RFU, RASA1 / Fold change vs veh, RASA1 / RFU, RB1 / Fold change vs veh, RB1 / RFU, PPFIA1 / Fold change vs veh, PPFIA1 / RFU, MAT2A / Fold change vs veh, MAT2A / RFU, CCT5 / Fold change vs veh, CCT5 / RFU, WDR92 / Fold change vs veh, WDR92 / RFU, CUX1 / Fold change vs veh, CUX1 / RFU, TTC7A / Fold change vs veh, TTC7A / RFU, TMEM135 / Fold change vs veh, TMEM135 / RFU, DEPTOR / Fold change vs veh, DEPTOR / RFU, CPM / Fold change vs veh, CPM / RFU, DNAJB6 / Fold change vs veh, DNAJB6 / RFU, CACNA2D3 / Fold change vs veh, CACNA2D3 / RFU, DTX4 / Fold change vs veh, DTX4 / RFU, TFCP2 / Fold change vs veh, TFCP2 / RFU, GMCL1 /// GMCL1P1 / Fold change vs veh, GMCL1 /// GMCL1P1 / RFU, AEBP2 / Fold change vs veh, AEBP2 / RFU, SNHG1 /// SNORD22 /// SNORD25 /// SNORD26 /// SNORD27 /// SNORD28 /// SNORD29 /// SNORD31 / Fold change vs veh, SNHG1 /// SNORD22 /// SNORD25 /// SNORD26 /// SNORD27 /// SNORD28 /// SNORD29 /// SNORD31 / Fold change (Aza/veh), C12orf56 (ProbeSet 11735607_a_at) / Fold change (ACY-1035/veh), C12orf56 (ProbeSet 11735607_a_at) / Fold change (Aza/veh), FGFR1OP (ProbeSet 11751329_s_at) / Fold change (ACY-1035/veh), FGFR1OP (ProbeSet 11751329_s_at) / Fold change (Aza/veh), VPS36 (ProbeSet 11739960_a_at) / Fold change (ACY-1035/veh), VPS36 (ProbeSet 11739960_a_at) / RFU SYPL1 (11715823_x_at) / Fold change /veh SYPL1 (11715823_x_at) / RFU IGFBP7 (11715501_s_at) / Fold change /veh IGFBP7 (11715501_s_at) / RFU REEP3 (11722064_at) / Fold change /veh REEP3 (11722064_at) / RFU IGLL1 (11728026_x_at) / Fold change /veh IGLL1 (11728026_x_at): dose or concentration left out as unconfirmed
Settings: MV-4-11 cells, 48 hours

Nc1ncn([C@@H]2O[C@H](CO)[C@@H](O)[C@H]2O)c(=O)n1 [azacitidine]
Fold change /veh CAMK2N1 (11719241_x_at): 0.94
